From patent US20140349970A1 (ABBVIE INC., priority 2009, published 2014)
Like-named read-outs stand apart in the source and are kept apart here.

Target: T1, Syk catalytic domain (aa 356-635 with a C-terminal His-tag) (Homo sapiens, UniProt P43405)
T1 construct: His-tag (C); made in house
Test: In vitro Syk kinase activity measured by trFRET, Syk catalytic domain
Type: biochemical
Outline: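 Kinase reaction: 0.14 nM His-tagged catalytic domain, 0.2 μM biotin-TYR1 peptide, 0.001 mM ATP in 50 mM MOPSO pH 6.5 with MgCl2, MnCl2, DTT, BSA, vanadate, ~60 min at rt, then EDTA quench. Phosphoproduct detected by trFRET (Eu anti-pTyr antibody/streptavidin-APC, 665 nm emission); IC50 from signal in linear range.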

[1] = Syk catalytic domain (aa 356-635), trFRET, 0.001 mM ATP

IC50 [1]	IC50	Structure (SMILES)
1000 to 10000 nM		CN1CCN(Cc2nc(-c3ccc(C(C)(C)O)cc3)c3cnc4[nH]ccc4n23)CC1 [N.1.96]
	100 to 1000 nM	Cc1nc(-c2cccc(S(C)(=O)=O)c2)c2cnc3[nH]ccc3n12 [AC.1.39]
	100 to 1000 nM	Cc1nc(-c2ccc3c(c2)CCO3)c2cnc3[nH]ccc3n12 [AC.1.26]
	100 to 1000 nM	Cn1ccc2cc(-c3nc(C4CCCCC4)n4c3cnc3[nH]ccc34)ccc21 [AC.3.8]
100 to 1000 nM		CCc1c[nH]c2ncc3c(-c4ccc(S(N)(=O)=O)cc4)nn(C)c3c12 [N.1.72]
< 100 nM		CC(C)(O)c1ccc(-c2nc(-c3ccccc3CO)n3c2cnc2[nH]ccc23)cc1 [N.1.109]
< 100 nM		COc1ccc2[nH]cc(-c3cc4c(ncc5cnn(C)c54)[nH]3)c2c1 [N.1.19]
	100 to 1000 nM	CCc1c(-c2ccc(C(C)(C)O)cc2)[nH]c2ncc3cnc(N(C)C)n3c12 [S.1.2]
	< 100 nM	Cc1nc(-c2ccc(OCCN3CCOCC3)cc2)c2cnc3[nH]ccc3n12 [AC.1.14]
